Target: T1, ΔN-TClpB (Thermus thermophilus, UniProt Q9RA63)
T1 construct: gene clpB; N-terminal domain deletion (AAA1, M-domain and AAA2 kept); from plasmid pMCB1; expressed in E. coli BL21(DE3) or KRX; purified; hexamer and smaller oligomers
Assay: fluorescence displacement of mant-ADP
Settings: per monomer; competitive binding model; 12.5 μM mant-ADP; Mg-ATP; pH 7.5, 20 mM KCl, 5 mM MgCl2, 25 °C; read-out: apparent Kd

T1 sequence (Q9RA63 141-854, stated change not applied): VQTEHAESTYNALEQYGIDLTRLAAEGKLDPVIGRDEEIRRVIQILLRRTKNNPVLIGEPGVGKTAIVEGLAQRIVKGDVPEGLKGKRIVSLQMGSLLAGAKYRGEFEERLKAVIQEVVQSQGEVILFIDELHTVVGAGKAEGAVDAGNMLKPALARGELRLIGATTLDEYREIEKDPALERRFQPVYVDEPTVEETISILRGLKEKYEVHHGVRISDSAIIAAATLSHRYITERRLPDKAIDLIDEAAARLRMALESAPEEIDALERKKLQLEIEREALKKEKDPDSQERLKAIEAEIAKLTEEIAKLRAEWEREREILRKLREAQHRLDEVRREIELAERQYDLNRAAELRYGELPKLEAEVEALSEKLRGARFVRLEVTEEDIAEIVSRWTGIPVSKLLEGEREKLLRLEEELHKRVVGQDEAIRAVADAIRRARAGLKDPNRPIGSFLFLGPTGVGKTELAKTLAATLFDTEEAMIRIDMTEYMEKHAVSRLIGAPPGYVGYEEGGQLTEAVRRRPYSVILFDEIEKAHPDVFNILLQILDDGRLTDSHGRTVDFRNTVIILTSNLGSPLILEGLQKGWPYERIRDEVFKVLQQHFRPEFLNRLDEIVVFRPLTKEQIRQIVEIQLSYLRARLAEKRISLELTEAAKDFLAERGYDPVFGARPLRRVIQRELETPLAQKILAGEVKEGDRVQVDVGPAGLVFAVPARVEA

Kd: 9.2 µM
SMILES: Nc1ncnc2c1ncn2[C@@H]1O[C@H](COP(=O)(O)OP(=O)(O)OP(=O)(O)O)[C@@H](O)[C@H]1O [ATP]
